Conditions: 101.33 kPa, Liquid, Hot wire method

CC(C)CC(C)C [2,4-dimethylpentane]
Conditions | thermal conductivity [W/m/K] | thermal diffusivity [m2/s]
256.59 K | 0.1138 | –
256.99 K | 0.1135 | –
257.3 K | 0.1133 | –
257.56 K | – | 7.9e-08
258.58 K | – | 7.84e-08
259.37 K | – | 7.76e-08
276.3 K | 0.1082 | –
276.69 K | 0.1079 | –
277.04 K | 0.1077 | –
277.29 K | – | 7.41e-08
278.27 K | – | 7.29e-08
279.16 K | – | 7.28e-08
296.19 K | 0.1025 | –
296.63 K | 0.1022 | –
296.97 K | 0.102 | –
297.18 K | – | 6.9e-08
298.25 K | – | 6.83e-08
299.08 K | – | 6.77e-08
316.55 K | 0.09692 | –
317.01 K | 0.09668 | –
317.37 K | 0.09645 | –
317.55 K | – | 6.43e-08
318.67 K | – | 6.39e-08
319.53 K | – | 6.32e-08
333.96 K | 0.0924 | –
334.43 K | 0.09213 | –
334.81 K | 0.09197 | –
334.93 K | – | 5.99e-08
336.06 K | – | 5.98e-08
336.97 K | – | 5.96e-08

CCCCCC(C)C [2-methylheptane]
Conditions | thermal conductivity [W/m/K] | thermal diffusivity [m2/s]
259.12 K | 0.1244 | –
259.33 K | 0.1242 | –
259.51 K | 0.1242 | –
260.04 K | – | 8.23e-08
260.63 K | – | 8.22e-08
261.12 K | – | 8.22e-08
277.53 K | 0.1195 | –
277.77 K | 0.1194 | –
277.96 K | 0.1193 | –
278.48 K | – | 7.83e-08
279.11 K | – | 7.84e-08
279.63 K | – | 7.81e-08
295.72 K | 0.1145 | –
295.95 K | 0.1144 | –
296.16 K | 0.1143 | –
296.69 K | – | 7.41e-08
297.31 K | – | 7.42e-08
297.85 K | – | 7.39e-08
313.83 K | 0.1097 | –
314.07 K | 0.1095 | –
314.3 K | 0.1095 | –
314.83 K | – | 7.05e-08
315.46 K | – | 7.04e-08
316.05 K | – | 7.06e-08
327.74 K | 0.1061 | –
328 K | 0.1059 | –
328.23 K | 0.1058 | –
328.77 K | – | 6.82e-08
329.44 K | – | 6.79e-08
330.02 K | – | 6.78e-08

CCCCC(C)C [2-methylhexane]
Conditions | thermal conductivity [W/m/K] | thermal diffusivity [m2/s]
256.24 K | 0.1227 | –
256.67 K | 0.1226 | –
257.02 K | 0.1224 | –
257.46 K | – | 8.41e-08
258.65 K | – | 8.33e-08
259.64 K | – | 8.28e-08
275.56 K | 0.1172 | –
276 K | 0.1168 | –
276.39 K | 0.1167 | –
276.83 K | – | 8e-08
278.06 K | – | 7.86e-08
279.12 K | – | 7.85e-08
296.46 K | 0.1109 | –
296.93 K | 0.1106 | –
297.4 K | 0.1105 | –
297.8 K | – | 7.5e-08
299.08 K | – | 7.43e-08
300.34 K | – | 7.38e-08
317.4 K | 0.1049 | –
317.92 K | 0.1047 | –
318.35 K | 0.1045 | –
318.77 K | – | 7.02e-08
320.16 K | – | 6.96e-08
321.33 K | – | 6.94e-08
337.1 K | 0.09956 | –
337.65 K | 0.0992 | –
338.11 K | 0.09905 | –
338.49 K | – | 6.63e-08
339.91 K | – | 6.52e-08
341.12 K | – | 6.49e-08

CCCC(C)C [2-methylpentane]
Conditions | thermal conductivity [W/m/K] | thermal diffusivity [m2/s]
256.56 K | 0.1182 | –
256.89 K | 0.1181 | –
257.29 K | 0.1179 | –
257.79 K | – | 8.23e-08
258.59 K | – | 8.18e-08
259.61 K | – | 8.15e-08
277.01 K | 0.1114 | –
277.35 K | 0.1113 | –
277.8 K | 0.1111 | –
278.28 K | – | 7.65e-08
279.1 K | – | 7.61e-08
280.22 K | – | 7.57e-08
297.36 K | 0.1049 | –
297.71 K | 0.1048 | –
298.16 K | 0.1046 | –
298.66 K | – | 7.11e-08
299.5 K | – | 7.09e-08
300.57 K | – | 7.04e-08
314.15 K | 0.09989 | –
314.51 K | 0.09978 | –
314.99 K | 0.09959 | –
315.5 K | – | 6.71e-08
316.34 K | – | 6.69e-08
317.47 K | – | 6.65e-08
328.29 K | 0.09597 | –
328.64 K | 0.09583 | –
329.15 K | 0.09564 | –
329.7 K | – | 6.42e-08
330.51 K | – | 6.39e-08
331.7 K | – | 6.36e-08
